# Test results reported in patent US20150272184A1, “NARINGENIN AND SALTS THEREOF FOR SWEETNESS ENHANCEMENT” (International Flavors & Fragrances Inc., priority 2014, published 2015).
# Read-outs that look alike come from different tables or passages of the source.
# Key:
# [1] = Paired comparison of sweetness, sucrose solutions in water with or without naringenin; format: in vivo, human; conditions: for Number of Samples Rated Sweeter: 26 paired samples
# Excerpt: The term “sweetness” or “sweetness intensity” is understood to mean the relative strength of sweet sensation as observed or experienced by an individual, e.g., a human, or a degree or amount of sweetness detected by a taster, for example on the scale from 0 (none) to 8 (very strong) used in sensory evaluations according to the procedure described in American Society for Testing Materials, Special Technical Publication-434: “Manual on Sensory Testing Methods,” ASTM International, West Conshohocken, Pa. (1996). Sucrose solutions of different concentrations were prepared in water. A naringenin (AuNutra Industries Inc) solution was also prepared in water (100 ppm) and used in all of the following examples. Each test group contained 26 paired samples. In each paired samples, a sucrose solution of a higher concentration was compared for sweetness against that of a lower concentration but in combination with naringenin. The results were represented by the numbers of samples rated as sweeter in paired comparisons, which were then statistically analyzed using binomial distribution for two-sided comparisons at 95% confidence level.
# [2] = Paired comparison of sweetness, Reb A solutions in water with or without naringenin; format: in vivo, human
# Excerpt: The term “sweetness” or “sweetness intensity” is understood to mean the relative strength of sweet sensation as observed or experienced by an individual, e.g., a human, or a degree or amount of sweetness detected by a taster, for example on the scale from 0 (none) to 8 (very strong) used in sensory evaluations according to the procedure described in American Society for Testing Materials, Special Technical Publication-434: “Manual on Sensory Testing Methods,” ASTM International, West Conshohocken, Pa. (1996). Sucrose solutions of different concentrations were prepared in water. A naringenin (AuNutra Industries Inc) solution was also prepared in water (100 ppm) and used in all of the following examples. Each test group contained 26 paired samples. In each paired samples, a sucrose solution of a higher concentration was compared for sweetness against that of a lower concentration but in combination with naringenin. The results were represented by the numbers of samples rated as sweeter in paired comparisons, which were then statistically analyzed using binomial distribution for two-sided comparisons at 95% confidence level. The evaluation is reported in the following: Reb A solutions of different concentrations were prepared in water and the sweetness enhancement by naringenin was similarly evaluated.
# [3] = Sweetness enhancement of artificial sweetener aspartame by naringenin; format: in vivo, human; conditions: aspartame (120 ppm), naringenin 100 ppm
# Procedure: (§1) Sucrose solutions of different concentrations were prepared in water. A naringenin (AuNutra Industries Inc) solution was also prepared in water (100 ppm) and used in all of the following examples. In addition, the sweetness enhancement of (i) sucralose (40 ppm), (ii) aspartame (120 ppm) and (iii) acesulfame potassium (120 ppm) by naringenin was also evaluated, respectively.
# [4] = Sweetness enhancement of artificial sweetener sucralose by naringenin; format: in vivo, human; conditions: sucralose (40 ppm), naringenin 100 ppm
# Procedure: as §1
# [5] = Flavor profile of Reb A water solution (10 ppm) plus naringenin of different concentrations; format: in vivo, human
# Procedure: A Reb A water solution (10 ppm) was prepared and used as the base. Different amount of naringenin was added to the base to obtain naringenin samples of a series of concentrations ranging from 10 to 1000 ppm.
# [6] = cited from earlier work
# [7] = cited from earlier work; remark: listed apart in the source
# [8] = Sweetness enhancement of artificial sweetener acesulfame potassium by naringenin; format: in vivo, human; conditions: acesulfame potassium (120 ppm), naringenin 100 ppm
# Procedure: as §1
# [9] = Paired comparison of sweetness, sucrose & Reb A combination with or without naringenin; format: in vivo, human
# Excerpt: The term “sweetness” or “sweetness intensity” is understood to mean the relative strength of sweet sensation as observed or experienced by an individual, e.g., a human, or a degree or amount of sweetness detected by a taster, for example on the scale from 0 (none) to 8 (very strong) used in sensory evaluations according to the procedure described in American Society for Testing Materials, Special Technical Publication-434: “Manual on Sensory Testing Methods,” ASTM International, West Conshohocken, Pa. (1996). Sucrose solutions of different concentrations were prepared in water. A naringenin (AuNutra Industries Inc) solution was also prepared in water (100 ppm) and used in all of the following examples. Each test group contained 26 paired samples. In each paired samples, a sucrose solution of a higher concentration was compared for sweetness against that of a lower concentration but in combination with naringenin. The results were represented by the numbers of samples rated as sweeter in paired comparisons, which were then statistically analyzed using binomial distribution for two-sided comparisons at 95% confidence level. The evaluation is reported in the following: The sweetness enhancement of sucrose & Reb A combination by naringenin was also evaluated.
# [10] = Flavor profile of non-fat plain yogurt with 5% sucrose plus naringenin of different concentrations; format: in vivo, human
# Procedure: A Danone Non-Fat Plain Yogurt with 5% sucrose was prepared and used as the base. Different amount of naringenin was added to the base to obtain naringenin samples of a series of concentrations ranging from 10 to 1000 ppm.
# [11] = pair Sucrose (0.5%) vs Naringenin (100 ppm in water), p 0.40
compound,measurement,setting,value
"OC[C@H]1O[C@@](CO)(O[C@H]2O[C@H](CO)[C@@H](O)[C@H](O)[C@H]2O)[C@@H](O)[C@@H]1O [Sucrose, sucrose, reference compound]",Number of Samples Rated Sweeter,[1]; [11],10
same,Number of Samples Rated Sweeter,"[1]; pair Sucrose (4.4%) vs Sucrose (4%) + Naringenin (100 ppm), p 0.01, significant",6
same,Number of Samples Rated Sweeter,"[1]; pair Sucrose (4.8%) vs Sucrose (4%) + Naringenin (100 ppm), p >0.40",14
"C=C1C[C@@]23CC[C@H]4[C@@](C)(CCC[C@@]4(C)C(=O)O[C@@H]4O[C@H](CO)[C@@H](O)[C@H](O)[C@H]4O)[C@@H]2CC[C@]1(O[C@@H]1O[C@H](CO)[C@@H](O)[C@H](O[C@@H]2O[C@H](CO)[C@@H](O)[C@H](O)[C@H]2O)[C@H]1O[C@@H]1O[C@H](CO)[C@@H](O)[C@H](O)[C@H]1O)C3 [Reb A, rebaudioside A, reference compound]",Number of Samples Rated Sweeter,"[2]; pair 140 ppm Reb A vs 100 ppm Reb A + Naringenin (100 ppm), p 0.05, significant",19
same,Number of Samples Rated Sweeter,"[2]; pair Reb A (120 ppm) vs Reb A (120 ppm) + Naringenin (100 ppm), p 0.01, significant",5
"O=C1CC(c2ccc(O)cc2)Oc2cc(O)cc(O)c21 (centres unmarked) [Naringenin, 2,3-dihydro-5,7-dihydroxy-2-(4-hydroxyphenyl)-4H-1-benzopyran-4-one]",sweetness enhanced to a level of a sucrose solution,[1]; naringenin 100 ppm in combination with a 4% sucrose solution,4.8%
same,"intrinsic sweetness, approximate level of a sucrose solution",[1]; naringenin 100 ppm in water alone,~0.5%
same,enhancement of sucrose sweetness,[1]; naringenin 100 ppm with 4% sucrose solution,more than an additive effect
same,Number of Samples Rated Sweeter,[1]; [11],16
same,sweetness enhancement,[3],enhanced sweetness with an impact up front
same,sweetness enhancement,[4],enhanced sweetness with an impact up front
same,enhancement of Reb A sweetness,[2]; naringenin 100 ppm,significantly enhanced
same,enhancement compared with that provided by additional Reb A,"[2]; naringenin 100 ppm with 100 ppm Reb A, ppm of Reb A",< 40 ppm
same,concentration at which naringenin exhibited sweetness enhancement,[5]; Reb A water solution (10 ppm),≥ 50 ppm
same,concentration at which undesirable off-notes developed,[5]; Reb A water solution (10 ppm),750 ppm
same,Flavor Profile,"[5]; Sample 2, naringenin 10 ppm in Reb A water solution (10 ppm)",Same as that of the base
same,Flavor Profile,"[5]; Sample 3, naringenin 50 ppm in Reb A water solution (10 ppm)",Very minor increase in sweetness
same,Flavor Profile,"[5]; Sample 4, naringenin 75 ppm in Reb A water solution (10 ppm)",Slightly more increase in sweetness
same,Flavor Profile,"[5]; Sample 5, naringenin 100 ppm in Reb A water solution (10 ppm)",Clear increase in sweetness with an impact up
same,Flavor Profile,"[5]; Sample 6, naringenin 250 ppm in Reb A water solution (10 ppm)",Intense sweetness with a stronger impact up
same,Flavor Profile,"[5]; Sample 7, naringenin 500 ppm in Reb A water solution (10 ppm)",Intense sweetness with a strong impact up front
same,Flavor Profile,"[5]; Sample 8, naringenin 750 ppm in Reb A water solution (10 ppm)",More intense sweetness with increased waxy
same,solubility,[6]; in aqueous solutions,sparingly soluble
same,solubility,"[6]; in ethanol, ether, oils (e.g., olive oil or citrus oil) and supercritical carbon dioxide",soluble
same,aftertaste modifier effect,[7]; U.S. Publication No. 2009/0004360,decreases the perception of bitterness or undesirable flavor
same,taste of naringenin itself,[7]; in vivo,weak to no sweet taste
same,taste and flavor performance,"[7]; tested up to a concentration of 10 ppm, U.S. Publication No. 2014/0170082","exhibits bitterness and unpleasant aftertaste, and performs poorly on flavor"
same,sweetness enhancement,[8],enhanced sweetness with an impact up front
same,enhancement of the sweetness of sucrose & Reb A combination,[9]; naringenin 100 ppm,significantly enhanced
same,enhancement compared with that achieved by Reb A,"[9]; naringenin 100 ppm with Reb A (10 ppm) + Sucrose (4%), ppm of Reb A",> 20 ppm
same,Flavor Profile,"[10]; Sample 2, naringenin 10 ppm in yogurt with 5% sucrose",Same as the base
same,Flavor Profile,"[10]; Sample 3, naringenin 50 ppm in yogurt with 5% sucrose",Minor increase in sweetness
same,Flavor Profile,"[10]; Sample 4, naringenin 75 ppm in yogurt with 5% sucrose",Slightly more increase in sweetness
same,Flavor Profile,"[10]; Sample 5, naringenin 100 ppm in yogurt with 5% sucrose",Clear increase in sweetness
same,Flavor Profile,"[10]; Sample 6, naringenin 250 ppm in yogurt with 5% sucrose",More intense and full-body sweetness
same,Flavor Profile,"[10]; Sample 7, naringenin 500 ppm in yogurt with 5% sucrose",Full-body sweetness with good impact
same,concentration at which naringenin exhibited sweetness enhancement,[10]; yogurt with 5% sucrose,≥ 50 ppm
same,concentration at which undesirable off-notes developed,[10]; yogurt with 5% sucrose,1000 ppm
